What was measured:
Assay in all cases: relative viability (nuclei count vs DMSO), 5 days (fraction); higher = more cells survive
CAL-12T = tested on: CAL-12T
Outline: (§1)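 Dosing by pin tool came one day after lung cancer cell lines were seeded in 1536-well plates, using either one drug or a fixed anchor-drug dose plus five library-drug doses (not always all listed) in √10 steps. After 5 days, nuclei were counted on 4× images. Relative viability is treated-well nuclei count divided by vehicle-well nuclei count, and values are medians of duplicate plates.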

COR-L 105 = tested on: COR-L 105
Outline: as §1

COR-L23 = tested on: COR-L23
Outline: as §1

HARA = tested on: HARA
Outline: as §1

HCC-15 = tested on: HCC-15
Outline: as §1

HCC-366 = tested on: HCC-366
Outline: as §1

HCC-44 = tested on: HCC-44
Outline: as §1

HCC-827 = tested on: HCC-827
Outline: as §1

HOP-62 = tested on: HOP-62
Outline: as §1

LC-2-ad = tested on: LC-2-ad
Outline: as §1

LCLC-97TM1 = tested on: LCLC-97TM1
Outline: as §1

LU99A = tested on: LU99A
Outline: as §1

LXF-289 = tested on: LXF-289
Outline: as §1

NCI-H1993 = tested on: NCI-H1993
Outline: as §1

NCI-H2009 = tested on: NCI-H2009
Outline: as §1

NCI-H2087 = tested on: NCI-H2087
Outline: as §1

NCI-H2126 = tested on: NCI-H2126
Outline: as §1

PC-14 = tested on: PC-14
Outline: as §1

PC-3 [JPC-3] = tested on: PC-3 [JPC-3]
Outline: as §1

SK-MES-1 = tested on: SK-MES-1
Outline: as §1

COCC1(CO)C(=O)C2CCN1CC2 (configuration not stated) [PRIMA-1MET] + C[C@]1(O)C[C@@H](c2nc(-c3ccc4ccc(-c5ccccc5)nc4c3)c3c(N)nccn32)C1 [Linsitinib] (partner 1 µM)
relative viability (CAL-12T; first compound 0.2 µM): 0.725
relative viability (CAL-12T; first compound 0.6325 µM): 0.733
relative viability (CAL-12T; first compound 2 µM): 0.745
relative viability (CAL-12T; first compound 6.325 µM): 0.85
relative viability (CAL-12T; first compound 20 µM): 0.543
relative viability (COR-L 105; first compound 0.2 µM): 0.943
relative viability (COR-L 105; first compound 0.6325 µM): 0.815
relative viability (COR-L 105; first compound 2 µM): 0.823
relative viability (COR-L 105; first compound 6.325 µM): 0.859
relative viability (COR-L 105; first compound 20 µM): 0.168
relative viability (COR-L23; first compound 0.2 µM): 0.94
relative viability (COR-L23; first compound 0.6325 µM): 0.942
relative viability (COR-L23; first compound 2 µM): 0.978
relative viability (COR-L23; first compound 6.325 µM): 0.873
relative viability (COR-L23; first compound 20 µM): 0.0228
relative viability (HARA; first compound 0.2 µM): 1.16
relative viability (HARA; first compound 0.6325 µM): 0.265
relative viability (HARA; first compound 6.325 µM): 0.903
relative viability (HARA; first compound 20 µM): 0.874
relative viability (HCC-15; first compound 0.2 µM): 0.893
relative viability (HCC-15; first compound 0.6325 µM): 0.544
relative viability (HCC-15; first compound 2 µM): 0.78
relative viability (HCC-15; first compound 6.325 µM): 0.903
relative viability (HCC-15; first compound 20 µM): 0.722
relative viability (HCC-366; first compound 0.2 µM): 0.773
relative viability (HCC-366; first compound 0.6325 µM): 0.566
relative viability (HCC-366; first compound 6.325 µM): 0.636
relative viability (HCC-366; first compound 20 µM): 0.0588
relative viability (HCC-44; first compound 0.2 µM): 0.746
relative viability (HCC-44; first compound 0.6325 µM): 0.528
relative viability (HCC-44; first compound 2 µM): 0.673
relative viability (HCC-44; first compound 6.325 µM): 0.706
relative viability (HCC-44; first compound 20 µM): 0.625
relative viability (HCC-827; first compound 0.2 µM): 1.04
relative viability (HCC-827; first compound 0.6325 µM): 0.884
relative viability (HCC-827; first compound 2 µM): 0.698
relative viability (HCC-827; first compound 6.325 µM): 0.962
relative viability (HCC-827; first compound 20 µM): 0.906
relative viability (HOP-62; first compound 0.2 µM): 1.08
relative viability (HOP-62; first compound 0.6325 µM): 0.976
relative viability (HOP-62; first compound 2 µM): 0.9
relative viability (HOP-62; first compound 6.325 µM): 0.987
relative viability (HOP-62; first compound 20 µM): 0.746
relative viability (LC-2-ad; first compound 0.2 µM): 0.967
relative viability (LC-2-ad; first compound 0.6325 µM): 0.843
relative viability (LC-2-ad; first compound 2 µM): 0.754
relative viability (LC-2-ad; first compound 6.325 µM): 0.858
relative viability (LC-2-ad; first compound 20 µM): 0.598
relative viability (LCLC-97TM1; first compound 0.2 µM): 0.213
relative viability (LCLC-97TM1; first compound 2 µM): 0.183
relative viability (LCLC-97TM1; first compound 6.325 µM): 0.199
relative viability (LCLC-97TM1; first compound 20 µM): 0.117
relative viability (LU99A; first compound 0.2 µM): 0.629
relative viability (LU99A; first compound 0.6325 µM): 0.439
relative viability (LU99A; first compound 2 µM): 0.567
relative viability (LU99A; first compound 6.325 µM): 0.526
relative viability (LU99A; first compound 20 µM): 0.189
relative viability (LXF-289; first compound 0.2 µM): 1.02
relative viability (LXF-289; first compound 0.6325 µM): 0.958
relative viability (LXF-289; first compound 2 µM): 1.04
relative viability (LXF-289; first compound 6.325 µM): 0.999
relative viability (LXF-289; first compound 20 µM): 0.89
relative viability (NCI-H1993; first compound 0.2 µM): 0.708
relative viability (NCI-H1993; first compound 0.6325 µM): 0.794
relative viability (NCI-H1993; first compound 2 µM): 0.656
relative viability (NCI-H1993; first compound 6.325 µM): 0.725
relative viability (NCI-H1993; first compound 20 µM): 0.757
relative viability (NCI-H2009; first compound 0.2 µM): 1.17
relative viability (NCI-H2009; first compound 0.6325 µM): 1.09
relative viability (NCI-H2009; first compound 2 µM): 1.22
relative viability (NCI-H2009; first compound 6.325 µM): 1.16
relative viability (NCI-H2009; first compound 20 µM): 0.693
relative viability (NCI-H2087; first compound 0.2 µM): 1.07
relative viability (NCI-H2087; first compound 0.6325 µM): 0.85
relative viability (NCI-H2087; first compound 2 µM): 0.875
relative viability (NCI-H2087; first compound 6.325 µM): 1.24
relative viability (NCI-H2087; first compound 20 µM): 0.691
relative viability (NCI-H2126; first compound 0.2 µM): 0.726
relative viability (NCI-H2126; first compound 0.6325 µM): 0.692
relative viability (NCI-H2126; first compound 2 µM): 0.636
relative viability (NCI-H2126; first compound 6.325 µM): 0.732
relative viability (NCI-H2126; first compound 20 µM): 0.67
relative viability (PC-14; first compound 0.2 µM): 0.918
relative viability (PC-14; first compound 0.6325 µM): 0.978
relative viability (PC-14; first compound 2 µM): 0.923
relative viability (PC-14; first compound 6.325 µM): 0.987
relative viability (PC-14; first compound 20 µM): 0.927
relative viability (PC-3 [JPC-3]; first compound 0.2 µM): 1
relative viability (PC-3 [JPC-3]; first compound 0.6325 µM): 0.92
relative viability (PC-3 [JPC-3]; first compound 2 µM): 0.979
relative viability (PC-3 [JPC-3]; first compound 6.325 µM): 1.02
relative viability (PC-3 [JPC-3]; first compound 20 µM): 0.91
relative viability (SK-MES-1; first compound 0.2 µM): 1.13
relative viability (SK-MES-1; first compound 0.6325 µM): 1.04
relative viability (SK-MES-1; first compound 2 µM): 1.02
relative viability (SK-MES-1; first compound 6.325 µM): 1.05
relative viability (SK-MES-1; first compound 20 µM): 1.11

Reference: the supplement of paper PMC10307832
